Data taken from US20190314379A1, “METHODS OF USING CANNABINOID CB2 RECEPTOR AGONIST COMPOSITIONS TO SUPPRESS AND PREVENT OPIOID TOLERANCE AND WITHDRAWAL IN A SUBJECT” (Indiana University Research and Technology Corporation, priority 2018, published 2019).
Entries after “also recorded” stand apart in the source; their conditions may differ.

Legend:
[1] = tested on: paclitaxel-induced cold allodynia; assay: Paclitaxel-induced cold allodynia (acetone); assay type: in vivo, mouse; settings: for cold allodynia, chronic phase 1 treatment: 3 mg/kg per day i.p.×12 days
Method: In all studies, the experimenter was blinded to the treatment condition, and mice were randomly assigned to experimental conditions. Paclitaxel (4 mg/kg i.p.) was administered four times on alternate days (cumulative dose, 16 mg/kg i.p.) to induce neuropathic pain as described previously by our group (Deng et al., 2015). Control mice received an equal volume of cremophor-vehicle. Development of paclitaxel-induced allodynia was assessed on day 0, 4, 7, 11, and 14.
Effects of pharmacologic manipulations were assessed at 30 minutes after drug administration during the maintenance phase of paclitaxel-induced neuropathy (i.e., beginning day 18-20 after initial paclitaxel injection).
In experiments 2 and 3, pharmacologic manipulations were performed once daily for 12 consecutive days in each of the two phases of chronic treatment. Four days separated phase 1 and phase 2 chronic dosing in all studies comprising two phases of chronic dosing. Experiments 2 and 3 were performed concurrently using overlapping cohorts that were tested with a single vehicle (phase 1), vehicle (phase 2) group.
We then assessed the antiallodynic efficacy of chronic systemic administration of vehicle or morphine (10 mg/kg per day i.p.×12 days) administered during phase 2 in the same animals. Responsiveness to mechanical and cold stimulation was evaluated on treatment days 1, 4, 8, and 12 during phase 1 and on treatment days 16, 19, 23, and 27 during phase 2 (i.e., phase 2 started on day 16).
In experiment 4, we evaluated the impact of coadministration of morphine (10 mg/kg i.p.×12 days) with a submaximal dose of LY 2828360 (0.1 mg/kg per day i.p.×12 days) in WT and CB2 KO mice.
Response time (seconds) spent attending to (i.e., elevating, licking, biting, or shaking) the paw stimulated with acetone (Sigma-Aldrich) was measured in triplicate for each paw to assess cold allodynia as previously published. An acetone bubble (approximately 5 to 6 p.1) formed at the end of a blunt 1-ml syringe hub was gently applied to the plantar surface of the hind paw. Care was taken not to apply mechanical stimulation to the hind paw with the syringe itself. The total time the animal spent attending to the acetone-stimulated paw (i.e., elevation, shaking, or licking) was recorded over 1 minute after acetone application. Acetone was applied three times to each paw with a 3-minute interval between applications. Values for each animal were calculated as the mean of six determinations of acetone responsiveness derived from each mouse.

human CB2 [2] = target: T1, human CB2 (Homo sapiens, UniProt P34972); assay: Myo-inositol phosphate-1 (IP1) accumulation, HEK hCB2; assay type: cell-based; set-up: expressed in transfected cells; settings: via human CB2
T1 sequence (P34972 whole entry): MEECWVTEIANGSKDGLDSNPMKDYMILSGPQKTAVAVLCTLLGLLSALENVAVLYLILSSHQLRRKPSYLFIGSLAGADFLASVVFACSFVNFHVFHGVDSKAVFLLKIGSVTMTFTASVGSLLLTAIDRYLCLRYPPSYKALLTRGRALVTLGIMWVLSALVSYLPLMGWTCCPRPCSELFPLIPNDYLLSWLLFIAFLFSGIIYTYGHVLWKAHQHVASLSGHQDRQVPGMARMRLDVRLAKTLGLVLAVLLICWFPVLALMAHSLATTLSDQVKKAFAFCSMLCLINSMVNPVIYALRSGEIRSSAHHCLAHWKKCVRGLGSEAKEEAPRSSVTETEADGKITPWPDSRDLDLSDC

mouse CB2 receptors [3] = target: T2, mouse CB2 receptors (Mus musculus, UniProt P47936); assay: Forskolin-stimulated cAMP accumulation (cyclase), HEK mCB2; assay type: cell-based; settings: for Emax: read-out: Cyclase Emax
T2 construct: expressed in transfected cells
T2 sequence (P47936 whole entry): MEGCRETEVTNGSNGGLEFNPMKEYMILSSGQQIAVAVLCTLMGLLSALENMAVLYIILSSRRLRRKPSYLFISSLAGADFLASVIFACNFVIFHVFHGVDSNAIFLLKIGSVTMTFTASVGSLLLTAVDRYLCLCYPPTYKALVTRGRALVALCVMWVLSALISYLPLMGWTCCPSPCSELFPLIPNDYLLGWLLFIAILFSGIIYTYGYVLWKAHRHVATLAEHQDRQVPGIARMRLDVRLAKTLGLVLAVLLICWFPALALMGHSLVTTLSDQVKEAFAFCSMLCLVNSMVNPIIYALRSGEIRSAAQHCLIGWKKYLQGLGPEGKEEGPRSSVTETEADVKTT

CB1 = CB1 (Homo sapiens, UniProt P21554); settings: at 100 μM; cited from earlier work
Chain of CB1 (P21554 whole entry, species assumed): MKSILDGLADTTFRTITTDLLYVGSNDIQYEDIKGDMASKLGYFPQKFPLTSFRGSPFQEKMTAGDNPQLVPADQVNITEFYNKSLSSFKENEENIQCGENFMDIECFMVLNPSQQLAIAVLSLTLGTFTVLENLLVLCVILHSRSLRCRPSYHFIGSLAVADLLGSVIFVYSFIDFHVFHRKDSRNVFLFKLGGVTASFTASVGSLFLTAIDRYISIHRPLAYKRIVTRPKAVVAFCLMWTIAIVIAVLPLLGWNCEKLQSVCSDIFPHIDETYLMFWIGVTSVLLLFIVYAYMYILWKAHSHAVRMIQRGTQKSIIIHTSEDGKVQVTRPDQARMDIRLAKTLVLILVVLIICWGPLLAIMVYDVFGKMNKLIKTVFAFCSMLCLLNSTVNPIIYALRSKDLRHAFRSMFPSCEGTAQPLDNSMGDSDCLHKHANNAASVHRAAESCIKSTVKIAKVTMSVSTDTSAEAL

mouse CB2 receptors [4] = target: T2, mouse CB2 receptors; assay: Myo-inositol phosphate-1 (IP1) accumulation, HEK mCB2; assay type: cell-based; settings: via mouse CB2
human CB2 [5] = target: T1, human CB2; assay: On-cell western for receptor internalization, HEK hCB2; assay type: cell-based; set-up: expressed in transfected cells
human CB2 [6] = target: T1, human CB2; assay: Forskolin-stimulated cAMP accumulation (cyclase), HEK hCB2; assay type: cell-based; set-up: expressed in transfected cells; time of inhibition of forskolin-stimulated cAMP accumulation: dose or concentration left out as unconfirmed
mouse CB2 receptors [7] = target: T2, mouse CB2 receptors; assay: Arrestin recruitment (PathHunter CHO K1CNR2, enzyme complementation); assay type: cell-based
mouse CB2 receptors [8] = target: T2, mouse CB2 receptors; assay: On-cell western for receptor internalization, HEK mCB2; assay type: cell-based
[9] = in vivo; cited from earlier work
[10] = tested on: naloxone-precipitated opioid withdrawal; assay: Naloxone-precipitated opioid withdrawal in paclitaxel-treated mice; assay type: in vivo, mouse
Method: Alter the last injection of morphine (on day 28 for two-phase treatments, on day 13 for coadministration treatment), we challenged WT or CB2KO mice from experiments 2, 3, and 4 with vehicle, followed 30 minutes later by naloxone (5 mg/kg i.p.) to precipitate opioid receptor-mediated withdrawal. Mice were video-recorded for subsequent scoring of withdrawal-like behaviors for a 30-minute interval after challenge with vehicle or naloxone.
Mice were video-taped, and the number of jumps was scored in 5-minute intervals for a total observation period of 30 minutes after challenge with either saline or naloxone (5 mg/kg i.p.).

osteoarthritic knee pain = settings: cited from earlier work
[11] = WT mice, 3 mg/kg per day i.p.×12 days after phase 1 morphine
[12] = paclitaxel-treated WT mice, naloxone 5 mg/kg i.p.

## Cc1nc(N2CCN(C)CC2)c2nc(-c3ccccc3Cl)n(C3CCOCC3)c2n1 [LY2828360, 8-(2-chlorophenyl)-2-methyl-6-(4-methylpiperazin-1-yl)-9-(tetrahydro-2H-pyran-4-yl)-9H-purine]
[1]; 3 mg/kg i.p. acute
  time for responsiveness to cold stimulation to return to baseline: 3 days
[1]; CB2KO mice
  cold allodynia, chronic phase 1 treatment: failed to suppress
[1]; CB2KO mice, 3 mg/kg per day i.p.×12 days after phase 1 morphine
  cold responsiveness, phase 2 treatment of morphine-tolerant mice: did not alter responsiveness to mechanical or cold stimulation
[1]; CB2KO mice, LY2828360 0.1 mg/kg with morphine 10 mg/kg per day×12 days
  cold allodynia, coadministration with morphine: sustained antiallodynic efficacy was absent
[1]; CB2KO mice, LY2828360 phase 1, morphine phase 2
  development of tolerance to antiallodynic effect of phase 2 morphine, cold: did not block the development of morphine tolerance
[1]; WT mice, 3 mg/kg i.p. acute
  paclitaxel-induced cold allodynia, high dose: fully reversed paclitaxel-induced allodynia and normalized responses to pre-paclitaxel baseline levels
[1]; WT mice
  cold allodynia, chronic phase 1 treatment: markedly suppressed paclitaxel-induced mechanical and cold allodynia throughout the observation interval
[1]; [11]
  cold allodynia, phase 2 treatment of morphine-tolerant mice: fully reversed paclitaxel-induced allodynia and normalized responsiveness to pre-paclitaxel baseline levels
  tolerance to phase 2 treatment, cold: tolerance did not develop
[1]; WT mice, LY2828360 0.1 mg/kg per day i.p.×12 days with morphine 10 mg/kg per day×12 days
  cold allodynia, coadministration with morphine: normalized cold responsiveness on days 1 and 4
[1]; WT mice, LY2828360 0.1 mg/kg with morphine 10 mg/kg per day×12 days
  development of morphine tolerance under coadministration, cold: morphine tolerance failed to develop
[1]; WT mice, LY2828360 3 mg/kg per day×12 days phase 1, morphine 10 mg/kg×12 days phase 2
  development of tolerance to antiallodynic effect of phase 2 morphine, cold: prevented the development of morphine tolerance
[1]; WT mice, acute systemic (i.p.), dose-dependent
  paclitaxel-induced cold allodynia, acute dose response: suppressed
[1]; WT mice, doses lower than 0.3 mg/kg i.p.
  cold allodynia at low doses vs cremophor-vehicle controls: neuropathic pain was prominent
[1]; WT mice, phase 1, 3 mg/kg per day i.p.×12 days
  stability of antiallodynic efficacy (tolerance), cold: stable throughout phase 1 treatment
Human CB2 [2]
  IP1 accumulation: did not affect IP1 accumulation
Mouse CB2 receptors [3]; mCB2, 1 μM, PTX 300 ng/ml overnight
  forskolin-stimulated cAMP after PTX treatment: failed to affect cyclase levels at all time points
Mouse CB2 receptors [3]; mCB2, 1 μM, time course
  time of efficacious inhibition of forskolin-stimulated adenylyl cyclase: 30 min
Mouse CB2 receptors [3]; mCB2, 30-minute incubation, 1 μM SR144528 (SR2)
  inhibition of forskolin-stimulated cAMP accumulation in presence of SR144528: completely blocked
Mouse CB2 receptors [3]; mCB2, 5 minutes
  inhibition of forskolin-stimulated cAMP accumulation, concentration response: had no effect
Mouse CB2 receptors [3]; mCB2, 30 minutes
  inhibition of forskolin-stimulated cAMP accumulation, concentration response: potent, efficacious, and CB2 receptor mediated
Mouse CB2 receptors [3]; mouse CB2, 05 mins incubation
  Emax: 18.9%
Mouse CB2 receptors [3]; mouse CB2, 30 mins incubation, read-out: Cyclase EC50
  EC50: 13.6 nM
Mouse CB2 receptors [3]; mouse CB2, 30 mins incubation
  Emax: 53.4%
CB1
  maximal stimulation of CB1: 15%
Mouse CB2 receptors [4]
  IP1 accumulation: did not affect IP1 accumulation
Human CB2 [5]; HEK hCB2
  receptor internalization: failed to internalize the receptor
Human CB2 [5]; human CB2, 90 mins incubation, read-out: Internalization Emax
  Emax: 10.2%
Human CB2 [6]; hCB2, 5 minutes of treatment
  inhibition of forskolin-stimulated cAMP accumulation: had no effect
Human CB2 [6]; hCB2, 35 minutes
  inhibition of forskolin-stimulated cAMP accumulation: potent and efficacious agonist
  inhibition of forskolin-stimulated cAMP accumulation in presence of SR144528: completely blocked
Human CB2 [6]; hCB2, time course
  time of inhibition of forskolin-stimulated cAMP accumulation: 35 min
Human CB2 [6]; hCB2, time course, PTX
  inhibition of cAMP accumulation after PTX pretreatment: abolished this effect
Human CB2 [6]; human CB2, 35 mins incubation, read-out: Cyclase Emax
  Emax: 42.8%
Mouse CB2 receptors [7]; CHO cells expressing mCB2, 90-minute drug incubation
  arrestin recruitment: failed to do so
Mouse CB2 receptors [7]; mouse CB2, 90 mins incubation, read-out: Arrestin Emax
  Emax: 97.9%
Mouse CB2 receptors [8]; HEK mCB2
  receptor internalization: failed to internalize the receptor; also recorded: less potent and efficacious
Mouse CB2 receptors [8]; mouse CB2, 90 mins incubation, read-out: Internalization EC50
  EC50: 30.7 nM
Mouse CB2 receptors [8]; mouse CB2, 90 mins incubation, read-out: Internalization Emax
  Emax: 19.1%
[9]
  central nervous system (CNS) penetration: good
[10]; coadministration of LY2828360 with morphine, P=0.055
  naloxone-precipitated jumps, WT compared with CB2KO mice: trended to produce a lower number of naloxone-precipitated jumps
[10]; paclitaxel-treated CB2KO mice
  number of jumps, LY (1)-Mor (2) vs Veh (1)-Mor (2): did not differ
  number of jumps, LY (1)-Mor (2) vs Veh (1)-Veh (2): trended higher
[10]; [12]
  number of jumps, LY (1)-Mor (2) vs Veh (1)-Mor (2): did not differ
  number of naloxone-precipitated jumps, LY (1)-Mor (2) vs Veh (1)-Veh (2): did not differ
Osteoarthritic knee pain; osteoarthritic pain, up to 80 mg for 4 weeks
  risks or discomforts in human subjects: No specific risks or discomforts
Osteoarthritic knee pain; patients with osteoarthritic knee pain, phase 2
  primary endpoint vs placebo / relief of osteoarthritis pain: ineffective in relieving pain associated with osteoarthritis; also recorded: did not differ
